# ChEMBL document CHEMBL3045305, “Synthesis, anticancer and antibacterial activities of piperine analogs” (Med Chem Res, 2013)
# How the values were obtained:
# Format in all cases: functional
# Klebsiella pneumoniae = assay: Antibacterial activity against Klebsiella pneumoniae assessed as growth inhibition after 24 hr by two-fold serial dilution method
# Shigella dysenteriae = assay: Antibacterial activity against Shigella dysenteriae assessed as growth inhibition after 24 hr by two-fold serial dilution method
# Escherichia coli = assay: Antibacterial activity against Escherichia coli assessed as growth inhibition after 24 hr by two-fold serial dilution method
# Salmonella typhi = assay: Antibacterial activity against Salmonella enterica subsp. enterica serovar Typhi assessed as growth inhibition after 24 hr by two fold serial dilution method
# Bacillus subtilis = assay: Antibacterial activity against Bacillus subtilis assessed as growth inhibition after 24 hr by two fold serial dilution method
# Staphylococcus aureus = assay: Antibacterial activity against Staphylococcus aureus assessed as growth inhibition after 24 hr by two fold serial dilution method
# Pseudomonas aeruginosa = assay: Antibacterial activity against Pseudomonas aeruginosa assessed as growth inhibition after 24 hr by two-fold serial dilution method
Compound,MIC (Klebsiella pneumoniae) [µg/mL],MIC (Shigella dysenteriae) [µg/mL],MIC (Escherichia coli) [µg/mL],MIC (Salmonella typhi) [µg/mL],MIC (Bacillus subtilis) [µg/mL],MIC (Staphylococcus aureus) [µg/mL],MIC (Pseudomonas aeruginosa) [µg/mL]
O=C(/C=C/C=C/c1ccc2c(c1)OCO2)Nc1ccc(Cl)cc1,300,200,100,400,500,200,200
O=C(/C=C/C=C/c1ccc2c(c1)OCO2)N[C@@H](Cc1c[nH]c2ccccc12)C(=O)O,200,300,400,200,400,300,200
O=C(/C=C/C=C/c1ccc2c(c1)OCO2)Nc1ccc(Br)cc1,100,300,200,300,500,300,500
O=C(/C=C/C=C/c1ccc2c(c1)OCO2)N[C@@H](Cc1ccccc1)C(=O)O,300,150,300,200,400,400,400
O=C(/C=C/C=C/c1ccc2c(c1)OCO2)N[C@@H](Cc1cnc[nH]1)C(=O)O,300,200,200,300,300,300,300
CC1(C)S[C@@H]2[C@H](NC(=O)[C@H](N)c3ccccc3)C(=O)N2[C@H]1C(=O)O [AMPICILLIN],8,16,5,15,10,11,50
O=C(/C=C/C=C/c1ccc2c(c1)OCO2)N1CCCCC1 [PIPERINE],200,600,300,200,500,300,100
